Structures can show the parent of a compound that is named as a salt.
Assays:
HO-1 = HO-1 expression in colonic tissue during DSS-colitis (Western blot, semi-quantitative PCR); format: in vivo, C57BL/6 mice; details: CoPP 5 mg/kg i.p. daily, entire 7 day period
Procedure: Western Blot Analysis. Tissue samples from the distal colon of the animals were removed and snap frozen with liquid nitrogen. The frozen tissue was ground thoroughly and homogenized in Ripa buffer supplemented with proteinase inhibitors. The protein concentration was determined by the Bio-Rad Dc Protein Assay™ according manufacturers instructions (Bio-Rad, Hercules, Calif.). Electrophoresis was performed under denaturing conditions according to Laemmli with 10% polyacrylamide gels by loading 35 μg protein. Proteins were transferred onto a polyvinyldifluoridine membrane (Immobilon P™; Millipore, Bedford, Mass.) by electroblotting. Proteins were then detected with rabbit polyclonal antibodies directed against human HO-1 (StressGen, Victoria, Canada) or β-tubulin (Boehringer Mannheim, Mannheim, Germany). Proteins were visualized using HRP-conjugated donkey anti-rabbit IgG or goat anti-mouse IgG (Pierce) and the ECL assay (Amersham Life Science, Arlington Heights, Ill.), according to manufacturer's instructions.
Semi-Quantitative PCR. RNA was extracted using RNeasy Mini Kits (Qiagen Inc., CA, USA) and reverse transcribed into cDNA with the RNA PCR Kit (TaKaRa, PanVera, Madison, Wis., USA). […] PCR products (10-20 μl) were analyzed in an ethidium bromide-stained 1% agarose gel.

IL-2 = IL-2 assay (ELISA of culture supernatant); format: cell-based, mouse; details: anti-CD3 mAb stimulation, biliverdin 50 or 100 μM
Procedure: IL-2 assay. B6AF1 leukocytes (2.5×10^5 cells/well) were stimulated by anti-CD3 mAb (1 μg/ml), and cultured in 96 well round bottom plates with or without biliverdin (50 or 100 μM). Forty-eight hours later, culture supernatant (100 μl) was collected and stored at −80° C. until use. All cultures were performed in triplicates. IL-2 levels in the supernatants were measured by enzyme-linked immunosorbent assays (ELISA) using an IL-2 assay kit (Quantikine® M, R&D Systems, Inc), following kit instructions. Measurements of each supernatant sample for IL-2 were performed in duplicate. The experiment was repeated 4 times.

[1] = system: IL-2 receptor α-chain (IL-2Rα, CD25); experiment: Flow cytometric analysis of IL-2R (CD25) expression; format: cell-based, mouse; details: biliverdin 100 μM, anti-CD3 mAb stimulated, 6 and 24 hours
Procedure: Flow cytometric analysis (IL-2R expression). B6AF1 leukocytes (5×10^5 cells/well) were stimulated with anti-CD3 mAb (1 μg/ml) and cultured in 96 well round bottom plates with or without biliverdin (100 μM). Six and 24 hours after stimulation, cells were harvested, washed, and stained with fluorochrome conjugated isotype control Abs, or specific anti-CD4 and/or anti-CD25 mAbs (all antibodies obtained from BD Pharmingen). Non-stimulated naïve leukocytes were used as a negative control. Following Abs staining, cell samples were analyzed using a FACSort™ flow cytometer and CellQuest™ software (BD Biosciences, Palo Alto, Calif.). Ten thousand CD4+ T cells were acquired for each sample and their CD25 expression was examined. The experiment was repeated 3 times.

[2] = system: transplanted islets in diabetic mice; experiment: Syngeneic islet transplantation, minimal mass model; format: in vivo, DBA/2 mouse; details: 50 μmol/kg twice daily day-1 until day 7; 140 islets; control hyperglycemic >52 days
Procedure: The ability of exogenously administered biliverdin to protect transplanted islet was evaluated in the minimal mass model. Syngeneic islet transplantation was carried out in the DBA/2 mouse. Islets (140) were transplanted under the kidney capsule of diabetic mice. Test animals were treated with 50 μmol/kg biliverdin twice daily from day-1 until day 7. The controls were treated with vehicle only. Biliverdin treated animals returned to normoglycemia in 7.7±5.5 days; animals in control group remain hyperglycemic (>52 days).

[3] = Total antioxidant capacity of graft, SITx with 6 hours preservation; format: in vivo, LEW rats
Excerpt: Antioxidant capacity after BV treatment. the total antioxidant capacity or antioxidant power within the graft specimens was quantitatively measured. Antioxidant levels in the graft were detected using Total Antioxidant Power® (Oxford Biomedical Research, Oxford, Mich.), according to the manufacturer's instructions. In this procedure, the evaluation of the antioxidant level in a sample is detected by evaluation of Cu^+ derived from Cu^++ by the combined action of all antioxidants present in the sample.

nitric oxide = experiment: Serum nitrite/nitrate, SITx with preserved intestine; format: in vivo, LEW rats
Procedure: Detection of Serum Mediators. Serum samples from the recipients transplanted with preserved intestine were taken at 3 and 12 hours after reperfusion and stored at […] until evaluation. Serum IL-6 was determined using a rat enzyme-linked immunoassay (ELISA) kits as described by the manufacturer (R & D Systems, Inc., Cambridge, Mass.). To monitor the production of nitric oxide, the stable end products of NO metabolism, serum nitrite/nitrate levels, were measured 12 hours after engraftment using a commercially available test kit (Cayman, Ann Arbor, Mich.). In this assay system, nitrate is reduced to nitrite using nitrate reductase, and the nitrite concentration of the sample is subsequently measured using the Griess reaction.

| SMILES | HO-1 protein in the intestine (HO-1) | IL-2 production by splenocytes (IL-2) | expression of IL-2Rα (CD25) on splenic CD4+ T cells [1] | time to return to normoglycemia [2] | antioxidant capacity of the transplanted intestine [3] | mean serum nitrite/nitrate (NO) level (nitric oxide; BV treated controls (no transplant)) | decrease of transplantation-induced serum NO levels (nitric oxide; SITx, 12 hours after engraftment) | serum NO level (nitric oxide; SITx, 12 hours after engraftment, untreated 34.4±15.2) |
| --- | --- | --- | --- | --- | --- | --- | --- | --- |
| C=CC1=C(C)c2cc3[n-]c(cc4nc(cc5[n-]c(cc1n2)c(C)c5CCC(=O)[O-])C(CCC(=O)[O-])=C4C)c(C)c3C=C.[Co+2].[H+].[H+] [CoPP, Cobalt protoporphyrin] | consistently high levels of HO-1 protein | – | – | – | – | – | – | – |
| C=CC1=C(C)/C(=C/C2=NC(=C\c3[nH]c(/C=C4\NC(=O)C(C)=C4C=C)c(C)c3CCC(=O)O)/C(CCC(=O)O)=C2C)NC1=O [biliverdin, biliverdin dihydrochloride] | – | significantly suppressed in a dose-dependent manner | did not affect | 7.7 ± 5.5 days | increased the antioxidant capacity of the transplanted intestine to normal levels | 18.4 ± 3.2 µM | 53% | 18.2 ± 3.9 µM |
